Laboratory results from US11180504B2 (ORCHID PHARMA LTD., priority 2016, dated 2021).
Values after ≈ are worked out from the molar mass of the structure shown. Read-outs that look alike come from different tables or passages of the source.

Columns and labels:
[1] = tested on: methicillin-sensitive Staphylococcus aureus; experiment: MIC by broth micro-dilution (CLSI), methicillin-sensitive S. aureus; type: cell-based; conditions: MSSA S. aureus ATCC29213
[2] = tested on: carbapenem sensitive Escherichia coli; experiment: MIC by broth micro-dilution (CLSI), carbapenem sensitive E. coli; type: cell-based
[3] = tested on: carbapenemase producing K. pneumoniae; experiment: MIC by broth micro-dilution (CLSI), carbapenemase producing K. pneumoniae; type: cell-based, Klebsiella pneumoniae
[4] = tested on: carbapenem sensitive Pseudomonas aeruginosa; experiment: MIC by broth micro-dilution (CLSI), carbapenem sensitive P. aeruginosa; type: cell-based
[5] = Staphylococcus aureus, ATCC 29213 / MSSA, read-out: MIC
[6] = Escherichia coli, ATCC25922, ESBL −ve E. coli ATCC25922, read-out: MIC
[7] = Klebsiella pneumoniae, ATCCBAA1705, KPC-2 K. pneumoniae ATCC BAA-1705, read-out: MIC
[8] = Pseudomonas aeruginosa, ATCC27853, Meropenem susceptible P. aeruginosa ATCC27853, read-out: MIC
[9] = KPC-2 K. pneumoniae ATCC BAA-1705
[10] = Meropenem susceptible P. aeruginosa ATCC27853

SMILES | MIC [1, 5] | MIC [2, 6] | MIC [3, 7] | MIC [4, 8] | MIC [1] | MIC ([2]; ESBL −ve E. coli ATCC25922) | MIC [3, 9] | MIC [4, 10]
C[C@@H](NC(=O)Cn1cnnn1)[C@H]1C(=O)N2C(C(=O)O)=C(S[C@@H]3CN[C@H](C(=O)N4CCC[C@@H]4CN)C3)[C@H](C)[C@H]12 [Example 465, (4R,5S,6R)-6-((R)-1-(2-(1H-tetrazol-1-yl)acetamido)ethyl)-3-((3S,5S)-5-((R)-2-(aminomethyl)pyrrolidine-1-carbonyl)pyrrolidin-3-ylthio)-4-methyl-7-oxo-1-azabicyclo[3.2.0]hept-2-ene-2-carboxylic acid] | 4 µg/mL (≈ 7.3 µM) | 0.5 µg/mL (≈ 0.913 µM) | 2 µg/mL (≈ 3.65 µM) | 16 µg/mL (≈ 29.2 µM) |  |  |  | 
C[C@@H](NC(=O)Cn1cnnn1)[C@H]1C(=O)N2C(C(=O)O)=C(S[C@@H]3CN[C@H](C(=O)N4CCC(N)C(F)C4)C3)[C@H](C)[C@H]12 (stereo partly drawn) [Example 433, (4R,5S,6R)-6-((R)-1-(2-(1H-tetrazol-1-yl)acetamido)ethyl)-3-((3S,5S)-5-(4-amino-3-fluoropiperidine-1-carbonyl)pyrrolidin-3-ylthio)-4-methyl-7-oxo-1-azabicyclo[3.2.0]hept-2-ene-2-carboxylic acid] |  |  |  |  | 2 µg/mL (≈ 3.54 µM) | 0.25 µg/mL (≈ 0.442 µM) | 1 µg/mL (≈ 1.77 µM) | 1 µg/mL (≈ 1.77 µM)
C[C@@H](NC(=O)Cn1cnnn1)[C@H]1C(=O)N2C(C(=O)O)=C(S[C@@H]3CN[C@H](C(=O)N4CCN(CC(N)=O)CC4)C3)[C@H](C)[C@H]12 [Example 417, (4R,5S,6R)-6-((R)-1-(2-(1H-tetrazol-1-yl)acetamido)ethyl)-3-((3S,5S)-5-(4-(2-amino-2-oxoethyl)piperazine-1-carbonyl)pyrrolidin-3-ylthio)-4-methyl-7-oxo-1-azabicyclo[3.2.0]hept-2-ene-2-carboxylic acid] | 8 µg/mL (≈ 13.5 µM) | 0.5 µg/mL (≈ 0.847 µM) | 2 µg/mL (≈ 3.39 µM) | 16 µg/mL (≈ 27.1 µM) |  |  |  | 
C[C@@H](NC(=O)Cn1cnnn1)[C@H]1C(=O)N2C(C(=O)O)=C(S[C@@H]3CN[C@H](C(=O)N4CC5CCNCC5C4)C3)[C@H](C)[C@H]12 (single isomer, unassigned) [Example 528] |  |  |  |  | 4 µg/mL (≈ 6.97 µM) | 0.25 µg/mL (≈ 0.436 µM) | 1 µg/mL (≈ 1.74 µM) | 1 µg/mL (≈ 1.74 µM)
C[C@@H](NC(=O)Cn1nnc(N)n1)[C@H]1C(=O)N2C(C(=O)O)=C(S[C@@H]3CN[C@H](C(=O)N(C)C)C3)[C@H](C)[C@H]12 [Example 315, (4R,5S,6R)-6-((R) - 1-(2-(5-amino-2H-tetrazol-2-yl)acetamido)ethyl)-3-((3S,5S)-5-(dimethylcarbamoyl)pyrrolidin-3-ylthio)-4-methyl-7-oxo-1-azabicyclo[3.2.0]hept-2-ene-2-carboxylic acid] | 4 µg/mL (≈ 7.88 µM) | 0.125 µg/mL (≈ 0.246 µM) | 2 µg/mL (≈ 3.94 µM) | 64 µg/mL (≈ 126 µM) |  |  |  | 
CNCC(=O)N[C@H](C)[C@H]1C(=O)N2C(C(=O)O)=C(SC[C@H](N)C(=O)N3CC[C@@H](N)C3)[C@H](C)[C@H]12 [Example 273] | 128 µg/mL (≈ 273 µM) | 16 µg/mL (≈ 34.1 µM) | 32 µg/mL (≈ 68.3 µM) | 128 µg/mL (≈ 273 µM) |  |  |  | 

The next lines start with the values.

MIC [1, 5] | MIC [2, 6] | MIC [3, 7] | MIC [4, 8] | MIC [1] | MIC ([2]; ESBL −ve E. coli ATCC25922) | MIC [3, 9] | MIC [4, 10] | SMILES
2 µg/mL (≈ 3.23 µM) | 0.25 µg/mL (≈ 0.404 µM) | 1 µg/mL (≈ 1.62 µM) | 2 µg/mL (≈ 3.23 µM) |  |  |  |  | C[C@@H](NC(=O)Cn1cnnn1)[C@H]1C(=O)N2C(C(=O)O)=C(S[C@@H]3CN[C@H](C(=O)N4CCC(CNCC(N)=O)CC4)C3)[C@H](C)[C@H]12 [Example 437, (4R,5S,6R)-6-((R)-1-(2-(1H-tetrazol-1-yl)acetamido)ethyl)-3-((3S,5S)-5-(4-((2-amino-2-oxoethylamino)methyl)piperidine-1-carbonyl)pyrrolidin-3-ylthio)-4-methyl-7-oxo-1-azabicyclo[3.2.0]hept-2-ene-2-carboxylic acid]
1 µg/mL (≈ 1.75 µM) | 32 µg/mL (≈ 55.9 µM) | > 128 µg/mL | > 128 µg/mL |  |  |  |  | C[C@@H](NC(=O)Cn1cnnn1)[C@H]1C(=O)N2C(C(=O)[O-])=C(Sc3cnn(CC4CC[N+](C)(CCN)CC4)c3)[C@H](C)[C@H]12 (stereo partly drawn) [Example 594, (4R,5S,6R)-6-((R)-1-(2-(1H-tetrazol-1-yl)acetamido)ethyl)-3-(1-((1-(2-aminoethyl)-1-methylpiperidinium-4-yl)methyl)-1H-pyrazol-4-ylthio)-4-methyl-7-oxo-1-azabicyclo[3.2.0]hept-2-ene-2-carboxylate]
